In patent US7968526B2, “Antisense oligonucleotides directed to ribonucleotide reductase R2 and uses thereof in the treatment of cancer” (Lorus Therapeutics Inc., priority 2003, dated 2011):
Entries after “also recorded” stand apart in the source; their conditions may differ.

How the values were obtained:
[1] = system: SK-OV-3 human ovary adenocarcinoma cells; experiment: SK-OV-3 ovary tumour xenograft in CD-1 nude mice, combination with taxol or cisplatin (1.8); assay type: in vivo, human cells in mice; conditions: SEQ ID NO:1 10 mg/kg i.v. every other day 17 times
Method: After 52 days the mice were sacrificed and the tumours weighed. […] Mitoxantrone was administered intravenously once at the beginning of the treatments at a dose of 2 mg/kg (FIG. 4A) or once a week for four weeks at a reduced dose of 0.8 mg/kg (FIG. 4B). All treatments were stopped at day 50 (FIG. 4A) or 48 (FIG. 4B), respectively. […] Mitoxantrone was administered intravenously once at the beginning of the treatments at a dose of 2 mg/kg (FIG. 5A) or once a week for four weeks at a reduced dose of 0.8 mg/kg (FIG. 5B). All treatments were stopped at day 42 (FIG. 5A) or 38 (FIG. 5B), respectively. […] A2058 is a metastatic melanoma cell line. […] All treatments were stopped at day 24. […] Taxol was administered intravenously once a week at a dose of 10 mg/kg for three (FIG. 7A) or four weeks (FIG. 7C). Doxorubicin was administered intravenously once a week at a dose of 5 mg/kg for first three weeks (FIG. 7A) or for two weeks (FIG. 7C). All treatments were stopped at day 33 (FIG. 7A) or at day 26 (FIG. 7C), respectively. […] In FIG. 7C, antitumour activities were estimated by the inhibition of tumour volume, which was measured with calipers. Each point represents mean tumour volume calculated from 10 animals per experimental group. […] Taxol was administered intravenously once a week for first three weeks and intraperitoneally once a week for next two weeks at a dose of 10 mg/kg. Cisplatin was administered intravenously once a week for first three weeks and intraperitoneally once a week for next two weeks at a dose of 4 mg/kg. All treatments were stopped at day 40. Antitumour activities were estimated by the inhibition of tumour volume, which was measured with caliper. Each point represents mean tumour volume calculated from 9 animals per experimental group.

[2] = system: A2058 human skin cancer cells; experiment: A2058 melanoma growth in CD-1 nude mice (3.2); assay type: in vivo, human cells in mice
Method: Treatments lasted for 14 days thereafter. Antitumour activities were estimated by the inhibition of tumour volume, which was measured with a caliper on four different occasions over the treatment period. Each point represents mean tumour volume calculated from 5 animals per experimental group. […] Control animals (control) received saline alone for the same period. At the end of the treatments, the animals were sacrificed, tumours were excised and their weights were measured. Each bar represents mean tumour weight calculated from 6 animals per experimental group. […] Treatments lasted for 24 days thereafter. Antitumour activities were estimated by the inhibition of tumour volume, which was measured with a caliper at two-day intervals over the treatment period. Each point represents mean tumour volume calculated from 4 animals per experimental group. […] Treatments lasted for 24 days thereafter. Antitumour activities were estimated by the inhibition of tumour volume, which was measured with a caliper at two-day intervals over the treatment period. Each point represents mean tumour volume calculated from 4 animals per experimental group. […] Each point represents mean tumour volume calculated from 5 animals per experimental group. […] Antitumour activities were estimated by the inhibition of tumour volume, which was measured with a caliper on four different occasions over 16-day period. […]

[3] = system: NCI-H460 human lung cancer cells; experiment: NCI-H460 lung tumour growth in CD-1 nude mice (3.5); assay type: in vivo, human cells in mice
Method: (§1) Treatments lasted for 14 days thereafter. Antitumour activities were estimated by the inhibition of tumour volume, which was measured with a caliper on four different occasions over the treatment period. Each point represents mean tumour volume calculated from 5 animals per experimental group. […] Control animals (control) received saline alone for the same period. At the end of the treatments, the animals were sacrificed, tumours were excised and their weights were measured. Each bar represents mean tumour weight calculated from 6 animals per experimental group. […] Treatments lasted for 24 days thereafter. Antitumour activities were estimated by the inhibition of tumour volume, which was measured with a caliper at two-day intervals over the treatment period. Each point represents mean tumour volume calculated from 4 animals per experimental group. […] Treatments lasted for 24 days thereafter. Antitumour activities were estimated by the inhibition of tumour volume, which was measured with a caliper at two-day intervals over the treatment period. Each point represents mean tumour volume calculated from 4 animals per experimental group. […] Each point represents mean tumour volume calculated from 5 animals per experimental group. […] Antitumour activities were estimated by the inhibition of tumour volume, which was measured with a caliper on four different occasions over 16-day period. Each point represents mean tumour volume calculated from 5 animals per experimental group. […] Antitumour activities were estimated by the inhibition of tumour volume, which was measured with a caliper at two-day intervals over the treatment period. Each point represents mean tumour volume calculated from 5 animals per experimental group. […] Antitumour activities were estimated by the inhibition of tumour volume, which was measured with a caliper at various time intervals over the span of 30 days. Each point represents mean tumour volume calculated from 6 animals per experimental group. […] Antitumour activities were estimated by the inhibition of tumour volume, which was measured with a caliper. […]

[4] = system: SIHA human cervical cancer cells; experiment: SIHA cervical tumour growth in SCID mice (3.10); assay type: in vivo, human cells in mice
Method: as §1

[5] = system: Caki-1 human kidney cancer cells; experiment: Caki-1 kidney tumour xenograft in SCID mice, controls and chemotherapeutics (Example 7); assay type: in vivo, human cells in mice
Text: CD-1 athymic female nude mice, BALB/c nu/nu nude mice, SCID, and SCID beige mice were purchased from Charles River Laboratories (Montreal, Canada) and experiments were typically initiated when the mice were 6-7 weeks old. […] Each experimental group typically contained 10 mice. After the size of tumour reached a mean tumour volume of 50-100 mm^3, treatment was initiated. […] Anti-tumour activity was estimated by the measurement of tumour volume with a calliper at two-three day intervals. Tumour volume was calculated by a formula L×W×H/2, where L indicates length, W indicates width and H indicates height. Within 24 hours after the last treatment, the animals were sacrificed and tumour and body weights were measured. Results of statistical analyses of the data are presented as P values in the figure legends.
Three additional treatment groups received: 5-FU (13 mg/kg/day×5), vinblastine (1 mg/kg/week) and gemcitabine (100 mg/kg/week). […] Calliper measurements at 1-week intervals were used to calculate tumour volumes. Each point in FIG. 28A represents mean tumour volume calculated from 10 animals per experimental group (with the exception of SEQ ID NO:1 which was 8 animals).
After 49 days the mice were sacrificed and the tumours weighed. Each bar represents the mean tumour weight and standard error calculated for each treatment group.

[6] = system: human tumour cell xenografts; experiment: Human tumour cell xenografts in mice, compiled tumour weights (FIG. 29); assay type: in vivo, human cells in mice
Method: CD-1 athymic female nude mice, BALB/c nu/nu nude mice, SCID, and SCID beige mice were purchased from Charles River Laboratories (Montreal, Canada) and experiments were typically initiated when the mice were 6-7 weeks old. Human tumour cells were grown in appropriate growth medium and 3×10^6−1×10^7 cells suspended in 100 μl of PBS were subcutaneously injected into the right flank of the animals with a 23 gauge needle (cell number indicated in the figure legends). Each experimental group typically contained 10 mice. After the size of tumour reached a mean tumour volume of 50-100 mm^3, treatment was initiated. Antisense oligonucleotides (dissolved in saline) were administered by bolus infusion into the tail vein of animal every other day at the indicated dose. Anti-tumour activity was estimated by the measurement of tumour volume with a calliper at two-three day intervals. Tumour volume was calculated by a formula L×W×H/2, where L indicates length, W indicates width and H indicates height. Within 24 hours after the last treatment, the animals were sacrificed and tumour and body weights were measured.
Each data point represents tumour weight and standard error. […]

[7] = system: human whole blood; experiment: Intravenous compatibility assay (haemolysis); assay type: cell-based; conditions: static or dynamic conditions

In the case of “5′-GGCTAAATCGCTCCACCAAG-3′ (all phosphorothioate, sugars by position and methylation of C not given here) [SEQ ID NO: 1, fully phosphorothioated antisense oligonucleotide that hybridizes to the coding region of R2 mRNA]”, the “tumour volume data as percentage of saline control” value ([1]; SK-OV-3 (ovary), CD-1, Taxol 10 mg/kg weekly, Cisplatin 4 mg/kg weekly) is reported as 42%, the “Antitumour effect (tumour volume, FIG. 8)” value ([1]; SK-OV-3, CD-1 nude mice, taxol 10 mg/kg, cisplatin 4 mg/kg weekly) is reported as “significant delay of tumour growth compared to saline control” and the “Inhibitory effect on tumour growth (tumour volume, FIG. 18A)” value ([2]; A2058, CD-1 nude mice, 10 mg/kg i.v. every other day, 24 days) is reported as “strong inhibitory effects on the growth of human melanoma”. For the same substance, the “Inhibition of tumour weight” value ([2]; Human Melanoma) was about 80%, the “Inhibition of tumour weight” value ([3]; Human Lung Carcinoma) was about 70% and the “Inhibition of tumour size” value ([3]; Human Lung Carcinoma in CD-1 Nude mice, Days 14 to 19 after tumour implantation) was “Inhibition of tumour size by approximately 85%”. For the same substance, the “Inhibitory effect on tumour growth (tumour volume, FIG. 18D)” value ([3]; NCI-H460, CD-1 nude mice, 10 mg/kg i.v. every other day, 14 days) was “strong inhibitory effects on the growth of human lung carcinoma”, the “Inhibition of tumour weight” value ([4]; Human Cervical Carcinoma^2) was about 90% and the “Inhibition of tumour size” value ([4]; Human Cervical Carcinoma^2 in SCID mice, Day 22 after tumour implantation) was “Inhibition of tumour size by approximately 90%”. The “Inhibitory effect on tumour growth (tumour volume and weight, FIG. 22)” value ([4]; SIHA, SCID mice, 10 mg/kg i.v. every other day, 16 days) was “strong inhibitory effects on the growth of human cervical carcinoma”, the “Effect on tumour growth (volume and weight)” value ([5]; Caki-1, SCID mice, oligonucleotides 10 mg/kg/2 days i.v.) was “exceptional efficacy against renal cell carcinomas; also recorded: dramatic inhibition in growth of Caki-1 and A498 renal tumours; also recorded: superior to any of these compounds” and the “Time of treatment to complete tumour regression” value ([5]; renal tumours, SCID mice, 10 mg/kg/2 days i.v., day 28 post implantation of tumour) was at most 3 weeks. For the same substance, the “Effect on tumour growth and endpoint weight” value ([6]; all cancer cell lines tested) was “significant decrease in tumour growth (volume over time) and endpoint weight”, the “p, difference in tumour weight between control and oligonucleotide treated groups” value ([6]; range of human tumour xenografts, 2.5 mg/kg to 10 mg/kg i.v. every second day, all cases) was under 0.05 and the “Haemolytic activity (cell lysis and haemoglobin release)” value [7] was “did not cause haemolysis under static or dynamic conditions”.
